Laboratory results published in PubChem BioAssay (NCI).
Values joined by “and” are separate entries in the source; they are usually repeats but may differ in a detail not shown here. Equal entries are not always repeated.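 These data come from cells grown in 96-well plates and exposed to compound for 48 hours at five concentrations. TGI marks complete inhibition of growth.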

Columns and labels:
Assay in all cases: inhibition of tumour cell growth, NCI panel, 48 h
MDA-MB-435 = test system: MDA-MB-435
OVCAR-4 ovarian = test system: OVCAR-4 ovarian
K-562 leukemia = test system: K-562 leukemia
NCI-H226 lung = test system: NCI-H226 lung
HOP-92 NSCLC = test system: HOP-92 NSCLC
DU-145 prostate = test system: DU-145 prostate
SK-MEL-5 melanoma = test system: SK-MEL-5 melanoma
MOLT-4 leukemia = test system: MOLT-4 leukemia
SNB-19 CNS = test system: SNB-19 CNS
786-0 renal = test system: 786-0 renal

SMILES	TGI (MDA-MB-435)	TGI (OVCAR-4 ovarian)	TGI (K-562 leukemia)	TGI (NCI-H226 lung)	TGI (HOP-92 NSCLC)	TGI (DU-145 prostate)	TGI (SK-MEL-5 melanoma)	TGI (MOLT-4 leukemia)	TGI (SNB-19 CNS)	TGI (786-0 renal)
C=C1C(=O)O[C@@H]2[C@H]1C[C@H](I)[C@@]1(C)CC[C@H](O1)[C@](C)(I)CCCC(C)[C@@H]2O (stereo not given in full)	11.6 µM	17.6 µM	> 42.1 µM	3.85 µM	3.52 µM	13.6 µM	> 35.8 µM	> 23.4 µM	30.5 µM	2.84 µM
CC(C)CCCC(C)[C@H]1CCC2[C@@H]3CCC4Cc5nc6c(nc5C[C@]4(C)C3CC[C@@]21C)CC1CC[C@@H]2C(CC[C@@]3(C)C2CC[C@@H]3O)[C@@]1(C)C6 (stereo not given in full)	> 100 µM	> 100 µM	> 100 µM	> 100 µM	> 100 µM	> 100 µM	> 100 µM	> 100 µM	> 100 µM	> 100 µM
CC(=O)c1sc2c(c1O)c(=O)n(-c1ccccc1)c(=S)n2-c1ccccc1	> 100 µM	> 100 µM	> 100 µM	> 100 µM	> 100 µM	> 100 µM	> 100 µM	> 100 µM	> 100 µM	> 100 µM
C=CC1(O)CCCC=C1COCc1ccccc1 (stereo not given)	> 100 µM	> 100 µM	> 100 µM	> 100 µM	> 100 µM	> 100 µM	> 100 µM	66.7 µM	> 100 µM	> 100 µM
CC(C)=NNc1ncnc2nc[nH]c12	> 100 µM	> 100 µM	> 100 µM	97 µM	> 93.8 µM	67.8 µM	48.8 µM	> 100 µM	> 100 µM	> 100 µM
Cc1cc2c3c(c1)CCCN3CCC2	> 10 µM	> 10 µM	> 10 µM	> 10 µM	> 10 µM	> 10 µM	> 10 µM	> 10 µM	> 10 µM	> 10 µM
CCN(CCCl)c1cc(CN(C)C)cc(NC(=O)c2cc(C(=O)Nc3cc(CN(C)C)cc(N(CC)CCCl)c3)n(C)n2)c1	1.2 µM	2.8 µM	1.12 µM	4.16 µM	3.38 µM	9.19 µM	2.28 µM	0.164 µM	1.24 µM	0.261 µM
CC(=O)OC1CC[C@@]2(C)C(=CC[C@@H]3[C@@H]2CC[C@]2(C)C(OC(C)=O)[C@H](n4ccnc4)C[C@@H]32)C1 (stereo not given in full)	31.6 µM	46.6 µM	86.3 µM	> 100 µM	> 100 µM	> 100 µM	30.3 µM	30.3 µM	> 100 µM	> 100 µM
CC(N)=O.[Cl][Pt][Cl].[NH-]c1ccn(C2OC(CO)C(O)C2O)c(=O)n1 (stereo not given)	> 100 µM	> 100 µM	> 100 µM	> 100 µM	> 100 µM	> 100 µM	> 100 µM	> 100 µM	> 100 µM	> 100 µM
Clc1ccc(Cn2cc(/C=N/n3cnnc3)c3ccccc32)cc1	> 100 µM	> 100 µM	> 100 µM	4.14 µM	68.3 µM	> 100 µM	> 100 µM	> 100 µM	> 100 µM	> 100 µM
COc1cccc(-c2[nH]c3cc4c(cc3c(=O)c2C(=O)O)OCO4)c1	> 100 µM	> 100 µM	> 100 µM	> 100 µM	> 100 µM	> 100 µM	> 100 µM	> 100 µM	> 100 µM	> 100 µM
COC(=O)C1(Cc2ccccc2)Cc2c(C)ccc(C)c2C1=O (stereo not given)	43.4 µM	> 100 µM	> 100 µM	97.3 µM	54.3 µM	> 100 µM	28.8 µM	57.5 µM	> 100 µM	> 100 µM
NC(N)=N/N=C\c1c(-c2ccccc2)nc2sccn12	29.2 µM	29.5 µM	> 100 µM	33.1 µM	27.4 µM	33 µM	29.2 µM	51.7 µM	27.3 µM	27.1 µM
Nc1nc2c(c(=O)[nH]1)NC(CCNc1ccc(C(=O)O)cc1)CN2 (stereo not given)	> 100 µM	> 100 µM	> 100 µM	> 100 µM	> 100 µM	> 100 µM	> 100 µM	> 100 µM	> 100 µM	> 100 µM
CN(CCCNC(=O)c1c2ccc3ccccc3c2nn1C)CCCNC(=O)c1c2ccc3ccccc3c2nn1C	6.09 µM	24 µM	12 µM	31.1 µM	12.7 µM	44.4 µM	5.92 µM	24 µM	28.6 µM	25.7 µM
O=C([O-])C1([n+]2c(-c3ccccc3)cc(-c3ccccc3)cc2-c2ccccc2)CC1	50.7 µM	> 100 µM	> 100 µM	> 100 µM	> 100 µM	> 100 µM	> 100 µM	> 100 µM	> 100 µM	> 100 µM
O=c1[nH]nc(Cc2ccccc2)n1C1CC1	> 100 µM	> 100 µM	> 100 µM	> 100 µM	> 100 µM	> 100 µM	> 100 µM	> 100 µM	> 100 µM	> 100 µM
O=S(=O)(/N=C(\NO)Nc1ccc(Cl)cc1)c1cc(S(=O)(=O)c2ccccc2)cs1	29.9 µM	57.3 µM	31.6 µM	51.6 µM	31.5 µM	33 µM	21.9 µM	39.8 µM	42.6 µM	30 µM
C=C(Cl)C(Cl)(CBr)CCC(Br)C(C)(C)Cl (stereo not given)	6.56 µM and 4.63 µM and 23.4 µM	7.93 µM and 4.62 µM and 31.9 µM	24.4 µM and 10.8 µM and > 92.9 µM	38.4 µM and 32.5 µM and 37.9 µM	3.5 µM and 2.72 µM and 4.84 µM	3.86 µM and 3.1 µM and 7.05 µM	25.4 µM and 25.2 µM and 28.3 µM	59.8 µM and 33.4 µM and 54.3 µM	5.54 µM and 4.55 µM and 10.1 µM	0.9 µM and 1.03 µM and 3.78 µM
COc1cccc(Nc2nc(NS(=O)(=O)c3cc(C)c(Cl)cc3S)n[nH]2)c1	> 100 µM	> 100 µM	> 100 µM	> 100 µM	> 100 µM	> 100 µM	> 100 µM	> 100 µM	> 100 µM	> 100 µM
O=C(O)c1ccccc1CC(Cc1ccccc1)C(=O)O (stereo not given)	> 100 µM	> 100 µM	> 100 µM	> 100 µM	> 100 µM	> 100 µM	> 100 µM	> 100 µM	> 100 µM	> 100 µM
CC(=O)Nc1sccc1S(=O)(=O)c1ccc(Cl)cc1	> 100 µM	> 100 µM	> 100 µM	> 100 µM	> 100 µM	> 100 µM	> 100 µM	> 100 µM	> 100 µM	> 100 µM
COc1cccc(N2C(=O)C3CC(CC(C)(C)C)c4c([nH]c5ccccc45)C3C2=O)c1 (stereo not given)	> 10 µM	> 10 µM	> 10 µM	> 10 µM	> 10 µM	> 10 µM	> 10 µM	> 10 µM	> 10 µM	> 10 µM
N#Cc1c(N)nc2n[nH]c(N)c2c1-c1ccccc1	36.1 µM	> 100 µM	> 100 µM	> 79 µM	8.01 µM	54.2 µM	26.7 µM	32.4 µM	> 58.8 µM	69.8 µM
COC(=O)[C@]1(C)[C@H]2C[C@H]3O[C@H]4[C@H](O)[C@@H](O)OC(CC(O)C(C5=CC(=O)OC5)C(C5=CC(=O)OC5)C(O)CC56CCCCC7[C@@H](C)[C@H](C[C@H]8[C@](C)(C(=O)OC)[C@H](O)CC[C@]78C)O[C@H]([C@@H](O)[C@H](O)O5)[C@H]6O)(CCCCC([C@@H]3C)[C@]2(C)CC[C@@H]1O)[C@H]4O (stereo not given in full)	1.1 µM	0.373 µM	1.73 µM	5.02 µM	3.92 µM	0.219 µM	0.129 µM	0.0883 µM	1.12 µM	0.225 µM
CCOc1cc2c(cc1O)CC[C@@H]1[C@@H]2CC[C@]2(C)[C@@H](O)CC[C@@H]12	0.0761 µM	> 100 µM	6.24 µM	3.95 µM	29.6 µM	9.15 µM	2.48 µM	11.6 µM	7.13 µM	47.1 µM
CC1(CCCCO)C=CC(S(=O)(=O)c2ccccc2)CC1 (stereo not given)	21.8 µM	22.8 µM	11.6 µM	9.03 µM	7.04 µM	17.7 µM	15.4 µM	14.9 µM	26.6 µM	14.8 µM
CCCCCC(/C=C/[C@@H]1[C@@H](C(O)CCCCCC(=O)OC)C(=O)C[C@H]1O[Si](C)(C)C(C)(C)C)OCOCCOC (stereo not given in full)	27.9 µM	40.9 µM	> 52 µM	34.9 µM	46.2 µM	36.9 µM	30.5 µM	4.87 µM	29 µM	31.6 µM
COc1ccc2c(C(=O)c3c(C)n(CCN4CCOCC4)c4ccccc34)cccc2c1	22.8 µM	> 100 µM	> 100 µM	> 100 µM	> 100 µM	> 100 µM	35.2 µM	> 100 µM	> 100 µM	> 100 µM
Cc1cc(/N=C/c2ccc(Cl)cc2)n(-c2ccccc2)n1	> 100 µM	> 100 µM	> 100 µM	> 100 µM	> 100 µM	> 100 µM	68.8 µM	> 100 µM	> 100 µM	> 100 µM
